28 compounds from paper PMC11333205, “Pyridylpiperazine-based carbodithioates as urease inhibitors: synthesis and biological evaluation” (Frontiers in Chemistry, 2024) can be followed below.

Like-named read-outs stand apart in the source and are kept apart here.

For one data set, the target named is urease (Canavalia ensiformis, UniProt P07374). The data set can be described thus: biochemical. Type of data set: biochemical. How it is done: The inhibitory potential of the compounds was assessed using a slightly modified indophenol method ([Hina et al., 2023]). In 96-well plates, a mixture consisting of 50 µL urease, 30 µL buffer solution (phosphate buffer, sodium salicylate, sodium nitroprusside, and EDTA, pH 8.0), 10 µL urea substrate (100 mM), and 10 µL of the test compound (1 mM) was subjected to pre-incubation for 10 min at room temperature. Subsequently, an alkali reagent (70 µL) was promptly introduced into each well. Then, 30 min later, the absorbance at 630 nm for all samples was measured using a BioTek ELx800 instrument from BioTek Instruments, Inc., United States. The data were collected for all experiments performed in triplicate, and the percentage of inhibitory activities was assessed utilizing the following formula: Percentage of inhibition=100 – Absorbance of compound/Absorbance of control × 100.
Sequence of urease (P07374 whole entry, looked up): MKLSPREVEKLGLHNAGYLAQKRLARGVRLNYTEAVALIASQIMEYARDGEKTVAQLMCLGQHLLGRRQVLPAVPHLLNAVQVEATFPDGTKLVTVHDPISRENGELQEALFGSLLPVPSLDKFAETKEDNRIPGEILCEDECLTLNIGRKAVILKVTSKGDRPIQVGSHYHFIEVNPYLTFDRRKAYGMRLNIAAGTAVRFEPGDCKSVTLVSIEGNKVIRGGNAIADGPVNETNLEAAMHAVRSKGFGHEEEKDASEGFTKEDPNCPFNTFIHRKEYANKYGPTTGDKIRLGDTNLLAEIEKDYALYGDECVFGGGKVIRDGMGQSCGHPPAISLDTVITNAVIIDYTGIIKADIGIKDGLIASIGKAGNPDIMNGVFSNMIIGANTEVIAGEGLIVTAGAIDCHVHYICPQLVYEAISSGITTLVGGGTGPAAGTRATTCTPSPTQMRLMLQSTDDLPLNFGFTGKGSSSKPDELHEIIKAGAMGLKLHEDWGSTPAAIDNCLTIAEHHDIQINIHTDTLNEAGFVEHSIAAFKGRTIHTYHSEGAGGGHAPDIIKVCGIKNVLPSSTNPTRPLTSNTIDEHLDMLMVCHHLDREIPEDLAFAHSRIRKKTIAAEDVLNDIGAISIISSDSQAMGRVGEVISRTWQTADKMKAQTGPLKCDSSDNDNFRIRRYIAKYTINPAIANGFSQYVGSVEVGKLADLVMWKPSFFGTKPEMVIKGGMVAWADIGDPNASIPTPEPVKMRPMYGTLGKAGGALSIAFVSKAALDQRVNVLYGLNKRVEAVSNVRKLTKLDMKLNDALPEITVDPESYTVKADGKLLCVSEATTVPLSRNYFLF

With `O=C(CSC(=S)N1CCN(c2ncccc2[N+](=O)[O-])CC1)Nc1ccccc1` [Compound 5a, 2-Oxo-2-(phenylamino)ethyl 4-(3-nitropyridin-2-yl)piperazine-1-carbodithioate], the melting point (in general, the temperature, or range, at which the solid turns liquid) is 119 to 120 °C. Also, inhibition against urease was half-maximal at 18.7 ± 0.52 µM (IC50).
On the same counts, the results for `O=C(CSC(=S)N1CCN(c2ncccc2[N+](=O)[O-])CC1)Nc1ccccc1Cl` [Compound 5b, 2-((2-Chlorophenyl)amino)-2-oxoethyl 4-(3-nitropyridin-2-yl)piperazine-1-carbodithioate] are 114 to 116 °C and 41.03 ± 0.23 µM.
On the same counts, the results for `O=C(CSC(=S)N1CCN(c2ncccc2[N+](=O)[O-])CC1)Nc1cccc(Cl)c1` [Compound 5c, 2-((3-Chlorophenyl)amino)-2-oxoethyl 4-(3-nitropyridin-2-yl)piperazine-1-carbodithioate] are 121 to 122 °C and 37.33 ± 0.19 µM.
For `O=C(CSC(=S)N1CCN(c2ncccc2[N+](=O)[O-])CC1)Nc1ccc(Cl)cc1` [Compound 5d, 2-((4-Chlorophenyl)amino)-2-oxoethyl 4-(3-nitropyridin-2-yl)piperazine-1-carbodithioate], the melting point was in the range of 143 to 144 °C. For the same compound, the IC50 (usually the concentration that gives 50% inhibition) against urease worked out at 55.69 ± 0.2 µM.
On the same counts, the results for `O=C(CSC(=S)N1CCN(c2ncccc2[N+](=O)[O-])CC1)Nc1cccc(Br)c1` [Compound 5e, 2-((3-Bromophenyl)amino)-2-oxoethyl 4-(3-nitropyridin-2-yl)piperazine-1-carbodithioate] are 110 to 112 °C and 32.53 ± 0.2 µM.
The like results for `O=C(CSC(=S)N1CCN(c2ncccc2[N+](=O)[O-])CC1)Nc1ccc(Br)cc1` [Compound 5f, 2-((4-Bromophenyl)amino)-2-oxoethyl 4-(3-nitropyridin-2-yl)piperazine-1-carbodithioate] were, in that order, 136 to 138 °C and 21.3 ± 0.7 µM.
As for `O=C(CSC(=S)N1CCN(c2ncccc2[N+](=O)[O-])CC1)Nc1ccccc1[N+](=O)[O-]` [Compound 5g, 2-((2-Nitrophenyl)amino)-2-oxoethyl 4-(3-nitropyridin-2-yl)piperazine-1-carbodithioate], the melting point lay within 149 to 151 °C. At urease, the IC50 came to 16.84 ± 0.12 µM.
The like results for `O=C(CSC(=S)N1CCN(c2ncccc2[N+](=O)[O-])CC1)Nc1cccc([N+](=O)[O-])c1` [Compound 5h, 2-((3-Nitrophenyl)amino)-2-oxoethyl 4-(3-nitropyridin-2-yl)piperazine-1-carbodithioate] were, in that order, 174 to 175 °C and 27 ± 2.15 µM.
The like results for `O=C(CSC(=S)N1CCN(c2ncccc2[N+](=O)[O-])CC1)Nc1ccc([N+](=O)[O-])cc1` [Compound 5i, 2-((4-Nitrophenyl)amino)-2-oxoethyl 4-(3-nitropyridin-2-yl)piperazine-1-carbodithioate] were, in that order, 168 to 169 °C and 45.41 ± 0.23 µM.
On the same counts, the results for `Cc1cccc(NC(=O)CSC(=S)N2CCN(c3ncccc3[N+](=O)[O-])CC2)c1` [Compound 5k, 2-Oxo-2-(m-tolylamino)ethyl 4-(3-nitropyridin-2-yl)piperazine-1-carbodithioate] are 101 to 103 °C and 18.3 ± 0.17 µM.
Consider `Cc1ccc(NC(=O)CSC(=S)N2CCN(c3ncccc3[N+](=O)[O-])CC2)cc1` [Compound 5l, 2-Oxo-2-(p-tolylamino)ethyl 4-(3-nitropyridin-2-yl)piperazine-1-carbodithioate], for which, on urease, the concentration for half-maximal inhibition (IC50) was found to be 10.6 ± 0.36 µM.
On the same count and under the same terms, the value for `COc1ccccc1NC(=O)CSC(=S)N1CCN(c2ncccc2[N+](=O)[O-])CC1` [Compound 5m, 2-((2-Methoxyphenyl)amino)-2-oxoethyl 4-(3-nitropyridin-2-yl)piperazine-1-carbodithioate] was 8.17 ± 0.37 µM.
`COc1ccc(NC(=O)CSC(=S)N2CCN(c3ncccc3[N+](=O)[O-])CC2)cc1` [Compound 5n, 2-((4-Methoxyphenyl)amino)-2-oxoethyl 4-(3-nitropyridin-2-yl)piperazine-1-carbodithioate] had a melting point of 151 to 153 °C. This compound also had an IC50 on urease of 17.8 ± 0.29 µM.
The like results for `O=C(Nc1ccccc1)c1ccc(CSC(=S)N2CCN(c3ncccc3[N+](=O)[O-])CC2)cc1` [Compound 7a, 4-(Phenylcarbamoyl)benzyl 4-(3-nitropyridin-2-yl)piperazine-1-carbodithioate] were, in that order, 142 to 143 °C and 11.7 ± 0.26 µM.
On the same counts, the results for `O=C(Nc1ccccc1Cl)c1ccc(CSC(=S)N2CCN(c3ncccc3[N+](=O)[O-])CC2)cc1` [Compound 7b, 4-((2-Chlorophenyl)carbamoyl)benzyl 4-(3-nitropyridin-2-yl)piperazine-1-carbodithioate] are 109 to 110 °C and 32.53 ± 0.31 µM.
The like results for `O=C(Nc1cccc(Cl)c1)c1ccc(CSC(=S)N2CCN(c3ncccc3[N+](=O)[O-])CC2)cc1` [Compound 7c, 4-((3-Chlorophenyl)carbamoyl)benzyl 4-(3-nitropyridin-2-yl)piperazine-1-carbodithioate] were, in that order, 140 to 141 °C and 10.8 ± 0.52 µM.
Consider `O=C(Nc1ccc(Cl)cc1)c1ccc(CSC(=S)N2CCN(c3ncccc3[N+](=O)[O-])CC2)cc1` [Compound 7d, 4-((4-Chlorophenyl)carbamoyl)benzyl 4-(3-nitropyridin-2-yl)piperazine-1-carbodithioate], for which the melting point fell in the range of 147 to 148 °C. The same compound yielded an IC50 on urease of 43.11 ± 0.31 µM.
The like results for `O=C(Nc1cccc(Br)c1)c1ccc(CSC(=S)N2CCN(c3ncccc3[N+](=O)[O-])CC2)cc1` [Compound 7e, 4-((3-Bromophenyl)carbamoyl)benzyl 4-(3-nitropyridin-2-yl)piperazine-1-carbodithioate] were, in that order, 141 to 142 °C and 16.5 ± 0.28 µM.
The like results for `O=C(Nc1ccc(Br)cc1)c1ccc(CSC(=S)N2CCN(c3ncccc3[N+](=O)[O-])CC2)cc1` [Compound 7f, 4-((4-Bromophenyl)carbamoyl)benzyl 4-(3-nitropyridin-2-yl)piperazine-1-carbodithioate] were, in that order, 162 to 164 °C and 16.8 ± 0.29 µM.
On the same counts, the results for `O=C(Nc1ccccc1[N+](=O)[O-])c1ccc(CSC(=S)N2CCN(c3ncccc3[N+](=O)[O-])CC2)cc1` [Compound 7g, 4-((2-Nitrophenyl)carbamoyl)benzyl 4-(3-nitropyridin-2-yl)piperazine-1-carbodithioate] are 133 to 134 °C and 56.89 ± 0.31 µM.
With `O=C(Nc1cccc([N+](=O)[O-])c1)c1ccc(CSC(=S)N2CCN(c3ncccc3[N+](=O)[O-])CC2)cc1` [Compound 7h, 4-((3-Nitrophenyl)carbamoyl)benzyl 4-(3-nitropyridin-2-yl)piperazine-1-carbodithioate], the melting point lay in the range of 165 to 166 °C. Also, at urease, the IC50 came out at 47.94 ± 0.25 µM.
At urease, `O=C(Nc1ccc([N+](=O)[O-])cc1)c1ccc(CSC(=S)N2CCN(c3ncccc3[N+](=O)[O-])CC2)cc1` [Compound 7i, 4-((4-Nitrophenyl)carbamoyl)benzyl 4-(3-nitropyridin-2-yl)piperazine-1-carbodithioate] gave an IC50 of 10.5 ± 0.34 µM.
Compound `Cc1ccccc1NC(=O)c1ccc(CSC(=S)N2CCN(c3ncccc3[N+](=O)[O-])CC2)cc1` [Compound 7j, 4-(o-Tolylcarbamoyl)benzyl 4-(3-nitropyridin-2-yl)piperazine-1-carbodithioate] returned a melting point of 113 to 115 °C. At urease, this compound had an IC50 of 12.3 ± 0.27 µM.
As to `Cc1cccc(NC(=O)c2ccc(CSC(=S)N3CCN(c4ncccc4[N+](=O)[O-])CC3)cc2)c1` [Compound 7k, 4-(m-Tolylcarbamoyl)benzyl 4-(3-nitropyridin-2-yl)piperazine-1-carbodithioate], the IC50 against urease was found to be 10.7 ± 0.26 µM.
With `Cc1ccc(NC(=O)c2ccc(CSC(=S)N3CCN(c4ncccc4[N+](=O)[O-])CC3)cc2)cc1` [Compound 7l, 4-(P-tolylcarbamoyl)benzyl 4-(3-nitropyridin-2-yl)piperazine-1-carbodithioate], the melting point fell in the range of 158 to 160 °C. In addition, the IC50 against urease was 37.54 ± 0.26 µM.
The like results for `COc1ccccc1NC(=O)c1ccc(CSC(=S)N2CCN(c3ncccc3[N+](=O)[O-])CC2)cc1` [Compound 7m, 4-((2-Methoxyphenyl)carbamoyl)benzyl 4-(3-nitropyridin-2-yl)piperazine-1-carbodithioate] were, in that order, 166 to 167 °C and 18.7 ± 0.27 µM.
On the same counts, the results for `COc1ccc(NC(=O)c2ccc(CSC(=S)N3CCN(c4ncccc4[N+](=O)[O-])CC3)cc2)cc1` [Compound 7n, 4-((4-Methoxyphenyl)carbamoyl)benzyl 4-(3-nitropyridin-2-yl)piperazine-1-carbodithioate] are 187 to 189 °C and 24 ± 0.27 µM.
For `NC(N)=S` [Thiourea, thiourea, reference compound], the IC50 on urease (indophenol method, urea substrate 100 mM, pH 8.0, triplicate, read-out: Urease inhibition: IC50 ± SEM) was determined as 23 ± 0.03 µM.
